Species: Rattus norvegicus
Format: toxicity, organism-based, Sprague-Dawley
Conditions: in vivo, ip, 24 h, route intraperitoneal, time 1 day, vehicle .1 % RSA/SALINE
[1] = 0 mg/kg, vehicle control, tissue Blood, dose level Control
[2] = 0 mg/kg, vehicle control, tissue Plasma, dose level Control
[3] = […], tissue Blood, dose 0.25 mg/Kg, dose level High
[4] = […], tissue Plasma, dose 0.25 mg/Kg, dose level High

Description: DrugMatrix - Regimen: Single

## TNF-ALPHA, RAT
[1]
  ABSOLUTE EOSINOPHIL: 109.33 CELLS/uL
  ABSOLUTE LYMPHOCYTE: 13180.67 CELLS/uL
  ABSOLUTE MONOCYTE: 354 CELLS/uL
  ABSOLUTE SEGMENTED NEUTROPHIL: 1756 CELLS/uL
  BASOPHIL: 0%
  EOSINOPHIL: 0.67%
  ERYTHROCYTE COUNT: 5.38 x10E6/uL
  HEMOGLOBIN: 12.57 G/DL
  LEUKOCYTE COUNT: 15.4 x10E3/uL
  LYMPHOCYTE: 85%
  MEAN CORPUSCULAR HEMOGLOBIN: 23.37 pg
  MEAN CORPUSCULAR HEMOGLOBIN CONCENTRATION: 38.3 G/DL
  NEUTROPHIL: 12%
  NUCLEATED RED BLOOD CELLS: 0 /100WBC
  PLATELET COUNT: 832.33 x10E3/uL
[2]
  ALANINE AMINOTRANSFERASE: 37.33 u/L
  ALBUMIN: 4 G/DL
  ALKALINE PHOSPHATASE: 344.67 u/L
  ASPARTATE AMINOTRANSFERASE: 69.33 u/L
  BLOOD UREA NITROGEN: 13.67 mg/dL
  CARBON DIOXIDE: 28.33 mmol/L
  CHLORIDE: 99.67 MEQ/L
  CHOLESTEROL: 73.67 mg/dL
  CREATINE PHOSPHOKINASE: 270 u/L
  CREATININE: 0.19 mg/dL
  GLUCOSE: 176.33 mg/dL
  LACTATE DEHYDROGENASE: 160 u/L
  PHOSPHORUS: 13.47 mg/dL
  POTASSIUM: 6.77 MEQ/L
  TOTAL BILIRUBIN: 0.13 mg/dL
  TOTAL PROTEIN: 6.07 G/DL
  URIC ACID: 1.87 mg/dL
[3]
  ABSOLUTE EOSINOPHIL: 57.67 CELLS/uL
  ABSOLUTE LYMPHOCYTE: 13018 CELLS/uL
  ABSOLUTE MONOCYTE: 366 CELLS/uL
  ABSOLUTE SEGMENTED NEUTROPHIL: 1925 CELLS/uL
  BASOPHIL: 0%
  EOSINOPHIL: 0.33%
  ERYTHROCYTE COUNT: 5.31 x10E6/uL
  HEMATOCRIT: 32.37%
  HEMOGLOBIN: 12.23 G/DL
  LEUKOCYTE COUNT: 15.37 x10E3/uL
  LYMPHOCYTE: 85%
  MEAN CORPUSCULAR HEMOGLOBIN: 23.03 pg
  MEAN CORPUSCULAR HEMOGLOBIN CONCENTRATION: 37.8 G/DL
  MEAN CORPUSCULAR VOLUME: 60.97 fL
  NEUTROPHIL: 12.33%
  NUCLEATED RED BLOOD CELLS: 0.33 /100WBC
  PLATELET COUNT: 1023.67 x10E3/uL
[4]
  ALANINE AMINOTRANSFERASE: 40 u/L
  ALKALINE PHOSPHATASE: 339.67 u/L
  ASPARTATE AMINOTRANSFERASE: 85.67 u/L
  BLOOD UREA NITROGEN: 13.67 mg/dL
  CHOLESTEROL: 76.33 mg/dL
  CREATINE PHOSPHOKINASE: 860.67 u/L
  CREATININE: 0.21 mg/dL
  GLUCOSE: 158.33 mg/dL
  LACTATE DEHYDROGENASE: 124 u/L
  PHOSPHORUS: 11.93 mg/dL
  POTASSIUM: 6.39 MEQ/L
  SODIUM: 145.63 MEQ/L
  TOTAL BILIRUBIN: 0.2 mg/dL
  TOTAL PROTEIN: 6 G/DL
